# Measured values reported in PubChem BioAssay (NCI).
# Values joined by “and” are separate entries in the source; they are usually repeats but may differ in a detail not shown here. Equal values may be shown once.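 A five-concentration, 48-hour dose response in 96-well plates underlies each endpoint, interpolated linearly between surrounding concentrations. Here, GI50 denotes the concentration required for 50% inhibition of growth. TGI is the concentration that stops growth completely.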
# Assays:
# Experiment in all cases: growth of human tumour cells (NCI), 48 h
# DLD-1 colon = tested on: DLD-1 colon
# DMS 114 small cell lung = tested on: DMS 114 small cell lung
# KM20L2 colon = tested on: KM20L2 colon
# LXFL 529 NSCLC = tested on: LXFL 529 NSCLC
# DU-145 prostate = tested on: DU-145 prostate
# MDA-MB-231 breast = tested on: MDA-MB-231 breast
# MDA-N = tested on: MDA-N
# M19-MEL melanoma = tested on: M19-MEL melanoma
Structure (SMILES),GI50 (DU-145 prostate),TGI (DU-145 prostate),GI50 (MDA-MB-231 breast),TGI (MDA-MB-231 breast),other results
O=P1(c2ccccc2)CCCCC1,,,,,TGI (DLD-1 colon): > 100 µM; TGI (DMS 114 small cell lung): > 100 µM; TGI (KM20L2 colon): > 100 µM; TGI (LXFL 529 NSCLC): > 100 µM
CCN1C(=O)N(CC)C2C1NN=c1s/c(=C3\C(=O)N(CC(C)(C)C)c4ccccc43)c(=O)n12 (centres undefined),3.79 µM,18.6 µM,0.151 µM,2.29 µM,
Cc1nc2sc3c(c2c(=O)[nH]1)CCCC3,,> 100 µM,,> 100 µM,TGI (MDA-N): > 100 µM
CC1COC(C)(C)P(=O)(c2ccccc2)C1 (centres undefined),,,,,TGI (DLD-1 colon): > 100 µM; TGI (DMS 114 small cell lung): > 100 µM; TGI (KM20L2 colon): > 100 µM; TGI (LXFL 529 NSCLC): > 100 µM; TGI (M19-MEL melanoma): > 100 µM
c1ccc2c(c1)c1c(c3ccccc32)CN2CCCC2C1 (centres undefined),,> 100 µM,,32.3 µM,TGI (MDA-N): 14.2 µM
CC(=O)[O][Ga]([Br])[O]C(C)=O,,,,,GI50 (DLD-1 colon): > 100 µM; TGI (DLD-1 colon): > 100 µM; GI50 (KM20L2 colon): > 100 µM; TGI (KM20L2 colon): > 100 µM; GI50 (LXFL 529 NSCLC): > 100 µM; TGI (LXFL 529 NSCLC): > 100 µM; GI50 (M19-MEL melanoma): > 100 µM; TGI (M19-MEL melanoma): > 100 µM
O=S(=O)(Nc1ccc(F)cc1F)c1ccc(-c2cnc(C3CC3)o2)cc1,2.09 µM,> 100 µM,1.37 µM,21.7 µM,
S=c1[nH]c(=S)c2nnn(-c3ccccc3)c2[nH]1,,,,,TGI (DLD-1 colon): > 100 µM; TGI (DMS 114 small cell lung): > 100 µM; TGI (KM20L2 colon): > 100 µM; TGI (LXFL 529 NSCLC): > 100 µM; TGI (M19-MEL melanoma): > 100 µM
O=C(O)c1ccc(OCc2ccccc2)c(Cl)c1,,> 100 µM,,> 100 µM,TGI (MDA-N): > 100 µM
O=C1c2ccccc2-c2c1c1ccccc1c(=O)n2CCCCl,6.22 µM,> 100 µM,11.4 µM,39.8 µM,
Cc1cc(C)c(/C=C2\C(=O)Nc3ccc(NC(=O)CCCCCCC(=O)NO)cc32)[nH]1,1.49 µM,> 100 µM,1.37 µM,60 µM,
O=C(c1ccc(/C=C/c2n[nH]c3ccccc23)cc1)N1CCNCC1,5.76 µM and 4.15 µM,> 10 µM and 27.5 µM,6.04 µM and 3.62 µM,> 10 µM and 18 µM,
NCCSc1nc(-c2ccccc2)c(-c2ccccc2)o1,,> 100 µM,,> 100 µM,
Cc1ccc(C)c(N=C2NC(=O)C(CC(=O)Nc3ccc(Cl)cc3Cl)S2)c1 (centres undefined),,,,,TGI (DLD-1 colon): > 100 µM; TGI (DMS 114 small cell lung): > 100 µM; TGI (KM20L2 colon): > 100 µM; TGI (LXFL 529 NSCLC): > 100 µM; TGI (M19-MEL melanoma): > 100 µM
Cc1cc(C)c(NC(=O)c2sc3nc4c(cc3c2N)CN(Cc2ccccc2)CC4)c(C)c1,2.62 µM,7.65 µM,5.75 µM,58.9 µM,
O=C1NC(=NCCc2cccc(Cl)c2)S/C1=C\c1ccc2ncccc2c1,> 25 µM,> 25 µM,> 25 µM,> 25 µM,
Cc1ccc(NC(=O)CSc2nnc(-c3ccc(N=Cc4ccc(Cl)cc4)cc3)o2)cc1,,,,,TGI (DMS 114 small cell lung): > 100 µM; TGI (KM20L2 colon): > 100 µM; TGI (LXFL 529 NSCLC): > 100 µM; TGI (M19-MEL melanoma): > 100 µM
O[C@H](c1cc(C(F)(F)F)nc2c(C(F)(F)F)cccc12)[C@@H]1CCCCN1,3.41 µM,10.6 µM,1.78 µM,4.08 µM,
O=Cc1ccc2c(c1-c1c(C=O)ccc3c1OCO3)OCO2,,,,,TGI (DLD-1 colon): > 100 µM; TGI (DMS 114 small cell lung): > 100 µM; TGI (KM20L2 colon): > 100 µM; TGI (LXFL 529 NSCLC): > 100 µM; TGI (M19-MEL melanoma): > 100 µM
N=C(N)c1ccc2nc(-c3cc(CC(=O)N[C@@H](CC(=O)O)C(=O)O)cc(-c4cc(S(N)(=O)=O)ccc4O)c3O)[nH]c2c1,> 100 µM,> 100 µM,> 100 µM,> 100 µM,
Cn1cc(C2=C(c3cccc(Br)c3)C(=O)NC2=O)c2ccccc21,> 25 µM,> 25 µM,18.7 µM,> 25 µM,
CC(C)(S)C(N)C(=O)O (centres undefined),1600 µM,> 5000 µM,2660 µM,> 5000 µM,TGI (MDA-N): > 100 µM
COc1ncc(-c2ccc3ncnc(Nc4cccc(Cl)c4)c3c2)cc1NS(=O)(=O)C1CC1,,,3.38 µM,> 100 µM,
CCOC(=O)c1c(NC(=O)c2cccc(C(F)(F)F)c2)sc2c(CN(C)C)c(O)ccc12,5.82 µM,17.9 µM,4.23 µM,15.2 µM,
C#COc1cccc(Nc2c(C#N)cnc3ncc(NC(=O)CCl)cc23)c1,42.1 µM,> 62.5 µM,32 µM,> 62.5 µM,
COc1ccc(-n2c(C)cc(-c3ccccc3)c2C)cc1,4.66 µM,22.3 µM,1.56 µM,3.66 µM,
COc1cc(OC)c(/C=C/c2c3ccccc3cc[n+]2C)c(OC)c1,2.96 µM,48.8 µM,3.46 µM,31.4 µM,
CN1C(=O)/C(=C/c2c(Cl)n(C)c3ccccc23)c2ccccc21,5.05 µM,,1.99 µM,8.59 µM,

Structure (SMILES),GI50 (DU-145 prostate),TGI (DU-145 prostate),GI50 (MDA-MB-231 breast),TGI (MDA-MB-231 breast),other results
C1=C\COCc2cc(ccc2OCCN2CCCC2)Nc2nccc(n2)-c2cccc(c2)COC/1,1.55 µM,5.53 µM,1.92 µM,5.61 µM,
COc1cc2c3c(n(CCCOC(=O)C(F)(F)F)c(=O)c2cc1OC)-c1cc2c(cc1C3=O)OCO2,,1.71 µM,0.127 µM,> 49.9 µM,
CN(CCO)c1ccc(N2Cc3ccccc3OC3=C2C(=O)c2c(O)ccc(O)c2C3=O)cn1,0.174 µM,0.323 µM,0.221 µM,0.679 µM,
OCc1ccn2c1[C@@H](O)CC2,,> 100 µM,,> 100 µM,TGI (MDA-N): > 100 µM
C=C1C(=O)O[C@H]2[C@H]1CC/C(COC(=O)/C=C\C(=O)NCc1ccc(Cn3c(=O)sn(CCCC)c3=O)cc1)=C\CC[C@@]1(C)O[C@@H]21,0.854 µM,2.16 µM,0.992 µM,2.34 µM,
CC(=O)Oc1ccccc1C(=O)Nc1ncc([N+](=O)[O-])s1,4.51 µM,> 100 µM,1.95 µM,,TGI (MDA-N): > 90.1 µM
Cc1c(/C=N/NC(=O)c2ccc(Cl)cc2)c(=O)n(-c2ccccc2)n1C,,,,,TGI (DLD-1 colon): > 100 µM; TGI (DMS 114 small cell lung): > 100 µM; TGI (KM20L2 colon): > 100 µM; TGI (LXFL 529 NSCLC): > 100 µM; TGI (M19-MEL melanoma): > 100 µM
CCOc1ccncc1[N+](=O)[O-],,> 100 µM,,> 100 µM,TGI (MDA-N): > 100 µM
N#CC1=C(N)Oc2cc(O)ccc2C1c1cccc2ccccc12 (centres undefined),12.1 µM,29.7 µM,11.8 µM,30 µM,
O=C1NC(=O)/C(=C\c2ccccc2)C2=C1CCCC2,10.8 µM,22.9 µM,13.2 µM,26.4 µM,
COCC1(CO)C(=O)C2CCN1CC2 (centres undefined),17.7 µM,32.3 µM,17.2 µM,32 µM,
CCC1CCc2c(c(=O)oc3c2cc(OC)c2cccc(OC)c23)C1 (centres undefined),,,,,TGI (DLD-1 colon): > 100 µM; TGI (KM20L2 colon): > 100 µM; TGI (LXFL 529 NSCLC): > 100 µM; TGI (M19-MEL melanoma): > 100 µM
COc1c[c]([Hg][O]C(C)=O)c(OC)c(NC(=O)CC(C)=O)[c]1[Hg][O]C(C)=O,,,,,GI50 (DLD-1 colon): 2.25 µM; TGI (DLD-1 colon): 5.18 µM; GI50 (KM20L2 colon): 14.2 µM; TGI (KM20L2 colon): 30.9 µM; GI50 (LXFL 529 NSCLC): 1.42 µM; TGI (LXFL 529 NSCLC): 2.85 µM; GI50 (M19-MEL melanoma): 8.85 µM; TGI (M19-MEL melanoma): 22 µM
O=C(CSC1CCc2ccccc21)N/N=C/c1ccccc1O (centres undefined),6.09 µM,> 100 µM,3.98 µM,39.6 µM,
CCn1c(=O)c2c(=O)c3c4c(oc3oc2c2ccccc21)C(=O)c1ccccc1C4=O,> 100 µM,> 100 µM,,,
COC(=O)[C@@H](C)C[C@H](Cc1ccccc1)NC(=O)c1csc([C@@H](C[C@H](C(C)C)N(C)C(=O)[C@@H](NC(=O)[C@H]2CCCCN2C)C2CCCCC2)OC(C)=O)n1,0.000291 µM and 0.0025 µM,,0.00115 µM and 0.0025 µM,,
COc1ccc(CCNC(=O)c2ccc(NC3=C(Cl)C(=O)N(Cc4ccccc4)C3=O)cc2)cc1OC,16.2 µM,> 100 µM,4.52 µM,> 100 µM,
COc1ccc(O)c(C(=O)c2ccc(C(=O)N[C@H]3CCCNC[C@@H]3NC(=O)c3ccncc3)cc2)c1F,7.28 µM,24.5 µM,> 25 µM,> 25 µM,
CSc1ccc2c(c1)C(=O)c1c-2n(CCCBr)c(=O)c2cc([N+](=O)[O-])ccc12,3.9 µM,> 100 µM,> 100 µM,> 100 µM,
NC(=O)c1cc(S(=O)(=O)Nc2nnc(-c3ccccc3)c(-c3ccccc3)n2)c(SCc2ccccc2)cc1Cl,> 100 µM,> 100 µM,> 85.4 µM,> 100 µM,
C=C1C(=O)OC2CC(C)C3(O)CCC(=O)C3(C)CC12 (centres undefined),,> 100 µM,,> 100 µM,
c1ccc2nc3c(nc2c1)sc1ccccc13,,> 100 µM,,> 100 µM,
COc1ccc(-c2ccc(-c3ccc(C(=N)N)s3)s2)cc1,0.193 µM,0.357 µM,0.186 µM,0.371 µM,
O=CN1CCN(CC(O)CN2CCCCC2)CC1 (centres undefined),,> 100 µM,,> 100 µM,TGI (MDA-N): > 100 µM
O=[N+]([O-])c1ccc(N2N=C(c3ccc(NCc4nc5ccccc5[nH]4)cc3)CC2c2ccco2)cc1 (centres undefined),,,,,TGI (DLD-1 colon): > 100 µM; TGI (DMS 114 small cell lung): 50.9 µM; TGI (LXFL 529 NSCLC): 38.5 µM; TGI (M19-MEL melanoma): > 100 µM
CCN(Cc1ccccc1C)c1ccc(CO)c(Cl)c1,16.5 µM,35.4 µM,13.7 µM,32 µM,
O=C(Nc1ccc(F)cc1)c1cc(S(=O)(=O)Nc2nc3ccccc3o2)c(SCc2ccccc2)cc1Cl,19.2 µM,35.4 µM,14.5 µM,29.5 µM,
